Holding throughout (design): scale not given: the % may be the effect or the level left
The target of assay [1] is T1, Activin receptor type-1 (Homo sapiens) (UniProt Q04771).
T1 sequence (whole entry): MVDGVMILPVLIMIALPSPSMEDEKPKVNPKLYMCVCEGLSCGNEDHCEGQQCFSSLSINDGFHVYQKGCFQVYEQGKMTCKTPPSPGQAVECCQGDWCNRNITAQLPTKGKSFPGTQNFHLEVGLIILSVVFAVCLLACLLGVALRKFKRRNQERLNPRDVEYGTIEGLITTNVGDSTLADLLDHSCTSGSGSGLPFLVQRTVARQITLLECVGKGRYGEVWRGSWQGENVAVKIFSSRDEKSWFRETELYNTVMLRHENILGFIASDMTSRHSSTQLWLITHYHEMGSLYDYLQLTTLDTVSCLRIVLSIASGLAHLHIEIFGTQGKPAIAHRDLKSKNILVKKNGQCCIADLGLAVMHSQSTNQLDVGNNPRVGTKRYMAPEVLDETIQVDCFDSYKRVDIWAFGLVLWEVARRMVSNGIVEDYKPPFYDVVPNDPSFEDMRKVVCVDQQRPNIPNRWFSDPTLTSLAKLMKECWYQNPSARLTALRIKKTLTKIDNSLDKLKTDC
Nature of the assay: Inhibition of human ALK2 assessed as enzyme activity at 1 uM using casein as substrate preincubated for 20 mins followed by [gamma-33P]-ATP addition and measured after 120 mins by radiometric Hot-SpotSM Kinase assay relative to control.

The target of assay [2] is Cyclin-Y/Cyclin-dependent kinase 16 (Homo sapiens) (UniProt Q00536+Q8ND76). Briefly: Inhibition of human CDK16/cyclin Y assessed as enzyme activity at 1 uM using RB Protein as substrate preincubated for 20 mins followed by [gamma-33P]-ATP addition and measured after 120 mins by radiometric Hot-SpotSM Kinase assay relative to control. The format is protein-complex assay.

Assay [3] deals with Casein kinase II subunit alpha (Homo sapiens) (UniProt P68400). Briefly: Inhibition of human CK2a assessed as enzyme activity at 1 uM using RRRDDDSDDD as substrate preincubated for 20 mins followed by [gamma-33P]-ATP addition and measured after 120 mins by radiometric Hot-SpotSM Kinase assay relative to control.
Assay [4] concerns the target Tyrosine-protein kinase Fgr (Homo sapiens) (UniProt P09769). Nature of the assay: Inhibition of human FGR assessed as enzyme activity at 1 uM using poly[Glu:Tyr] (4:1) as substrate preincubated for 20 mins followed by [gamma-33P]-ATP addition and measured after 120 mins by radiometric Hot-SpotSM Kinase assay relative to control.
In assay [5] the target is Insulin receptor-related protein (Homo sapiens) (UniProt P14616). Briefly: Inhibition of human IRR assessed as enzyme activity at 1 uM using myelin basic protein as substrate preincubated for 20 mins followed by [gamma-33P]-ATP addition and measured after 120 mins by radiometric Hot-SpotSM Kinase assay relative to control.
In assay [6] the target is Tyrosine-protein kinase Lyn (Homo sapiens) (UniProt P07948). Briefly: Inhibition of human LYN B assessed as enzyme activity at 1 uM using poly[Glu:Tyr] (4:1) as substrate preincubated for 20 mins followed by [gamma-33P]-ATP addition and measured after 120 mins by radiometric Hot-SpotSM Kinase assay relative to control.
Assay [7] has as its target Serine/threonine-protein kinase MARK1 (Homo sapiens) (UniProt Q9P0L2). Nature of the assay: Inhibition of human MARK1 assessed as enzyme activity at 1 uM using KKKVSRSGLYRSPSMPENLNRPR as substrate preincubated for 20 mins followed by [gamma-33P]-ATP addition and measured after 120 mins by radiometric Hot-SpotSM Kinase assay relative to control.
Assay [8] deals with Serine/threonine-protein kinase MARK2 (Homo sapiens) (UniProt Q7KZI7). Briefly: Inhibition of human PAR-1Ba assessed as enzyme activity at 1 uM using KKKVSRSGLYRSPSMPENLNRPR as substrate preincubated for 20 mins followed by [gamma-33P]-ATP addition and measured after 120 mins by radiometric Hot-SpotSM Kinase assay relative to control.
Assay [9] deals with Misshapen-like kinase 1 (Homo sapiens) (UniProt Q8N4C8). Briefly: Inhibition of human MINK1 assessed as enzyme activity at 1 uM using myelin basic protein as substrate preincubated for 20 mins followed by [gamma-33P]-ATP addition and measured after 120 mins by radiometric Hot-SpotSM Kinase assay relative to control.
In assay [10] the target is Myosin light chain kinase 2, skeletal/cardiac muscle (Homo sapiens) (UniProt Q9H1R3). Briefly: Inhibition of human MLCK2 assessed as enzyme activity at 1 uM using KKLNRTLSFAEPG as substrate preincubated for 20 mins followed by [gamma-33P]-ATP addition and measured after 120 mins by radiometric Hot-SpotSM Kinase assay relative to control.
Assay [11] concerns the target MAP kinase-interacting serine/threonine-protein kinase 2 (Homo sapiens) (UniProt Q9HBH9). Nature of the assay: Inhibition of human MNK2 assessed as enzyme activity at 1 uM using myelin basic protein as substrate preincubated for 20 mins followed by [gamma-33P]-ATP addition and measured after 120 mins by radiometric Hot-SpotSM Kinase assay relative to control.
Assay [12] concerns the target Protein kinase C beta type (Homo sapiens) (UniProt P05771). Briefly: Inhibition of human PKCb1 assessed as enzyme activity at 1 uM using ERMRPRKRQGSVRRRV as substrate preincubated for 20 mins followed by [gamma-33P]-ATP addition and measured after 120 mins by radiometric Hot-SpotSM Kinase assay relative to control.
Assay [13] has as its target Serine/threonine-protein kinase N3 (Homo sapiens) (UniProt Q6P5Z2). Nature of the assay: Inhibition of human PKN3 assessed as enzyme activity at 1 uM using KKLNRTLSVA as substrate preincubated for 20 mins followed by [gamma-33P]-ATP addition and measured after 120 mins by radiometric Hot-SpotSM Kinase assay relative to control.
The target in assay [14] is Serine/threonine-protein kinase 33 (Homo sapiens) (UniProt Q9BYT3). Briefly: Inhibition of human STK33 assessed as enzyme activity at 1 uM using myelin basic protein as substrate preincubated for 20 mins followed by [gamma-33P]-ATP addition and measured after 120 mins by radiometric Hot-SpotSM Kinase assay relative to control.

Structures are written as SMILES.

Chain of Casein kinase II subunit alpha (Homo sapiens) (P68400 whole entry, looked up): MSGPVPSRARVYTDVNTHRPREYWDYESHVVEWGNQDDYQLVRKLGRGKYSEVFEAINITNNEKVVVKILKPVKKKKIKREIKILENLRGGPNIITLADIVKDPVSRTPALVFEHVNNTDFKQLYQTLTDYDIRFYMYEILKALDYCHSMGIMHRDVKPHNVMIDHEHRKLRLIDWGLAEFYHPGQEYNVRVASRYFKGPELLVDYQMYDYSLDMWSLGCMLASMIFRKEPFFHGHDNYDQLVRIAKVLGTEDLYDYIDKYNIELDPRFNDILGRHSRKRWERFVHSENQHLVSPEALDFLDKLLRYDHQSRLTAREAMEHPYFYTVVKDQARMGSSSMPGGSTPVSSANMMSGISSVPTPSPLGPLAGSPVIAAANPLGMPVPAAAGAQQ
Chain of Insulin receptor-related protein (Homo sapiens) (P14616 27-742 limits assumed): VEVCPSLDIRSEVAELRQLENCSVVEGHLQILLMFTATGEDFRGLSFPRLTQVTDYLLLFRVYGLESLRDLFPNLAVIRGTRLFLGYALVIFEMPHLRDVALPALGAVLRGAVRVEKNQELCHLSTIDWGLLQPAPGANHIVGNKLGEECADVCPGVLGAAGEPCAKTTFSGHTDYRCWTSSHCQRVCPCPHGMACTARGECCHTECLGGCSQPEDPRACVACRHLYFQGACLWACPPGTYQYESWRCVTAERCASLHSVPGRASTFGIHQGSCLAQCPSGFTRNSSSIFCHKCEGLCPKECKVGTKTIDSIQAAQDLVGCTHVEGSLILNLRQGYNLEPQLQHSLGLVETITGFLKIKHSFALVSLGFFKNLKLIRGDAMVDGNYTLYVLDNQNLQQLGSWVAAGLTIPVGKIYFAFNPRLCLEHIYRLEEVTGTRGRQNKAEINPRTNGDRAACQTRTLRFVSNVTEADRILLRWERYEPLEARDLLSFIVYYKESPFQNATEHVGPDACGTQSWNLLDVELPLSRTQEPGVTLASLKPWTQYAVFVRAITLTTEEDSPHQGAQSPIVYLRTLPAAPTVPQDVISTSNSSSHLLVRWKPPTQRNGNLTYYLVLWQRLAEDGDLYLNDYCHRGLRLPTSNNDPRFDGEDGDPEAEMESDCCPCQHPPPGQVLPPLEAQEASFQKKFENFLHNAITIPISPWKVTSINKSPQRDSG
Chain of Insulin receptor-related protein (Homo sapiens) (P14616 747-1297 limits assumed): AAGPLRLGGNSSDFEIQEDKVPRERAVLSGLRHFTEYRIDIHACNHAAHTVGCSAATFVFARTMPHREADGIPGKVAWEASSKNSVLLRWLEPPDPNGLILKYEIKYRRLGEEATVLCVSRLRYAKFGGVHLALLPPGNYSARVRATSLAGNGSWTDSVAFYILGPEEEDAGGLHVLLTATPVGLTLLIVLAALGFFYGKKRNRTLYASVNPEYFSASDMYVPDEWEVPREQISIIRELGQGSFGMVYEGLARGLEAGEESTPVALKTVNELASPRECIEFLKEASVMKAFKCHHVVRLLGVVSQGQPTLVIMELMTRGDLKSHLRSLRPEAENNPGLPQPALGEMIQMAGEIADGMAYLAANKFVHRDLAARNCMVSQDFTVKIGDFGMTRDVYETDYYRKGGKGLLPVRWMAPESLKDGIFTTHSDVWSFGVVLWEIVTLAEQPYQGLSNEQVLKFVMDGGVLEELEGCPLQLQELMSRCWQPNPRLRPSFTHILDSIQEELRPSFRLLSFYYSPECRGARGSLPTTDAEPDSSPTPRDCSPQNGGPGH
Chain of Tyrosine-protein kinase Fgr (Homo sapiens) (P09769 2-529 limits assumed): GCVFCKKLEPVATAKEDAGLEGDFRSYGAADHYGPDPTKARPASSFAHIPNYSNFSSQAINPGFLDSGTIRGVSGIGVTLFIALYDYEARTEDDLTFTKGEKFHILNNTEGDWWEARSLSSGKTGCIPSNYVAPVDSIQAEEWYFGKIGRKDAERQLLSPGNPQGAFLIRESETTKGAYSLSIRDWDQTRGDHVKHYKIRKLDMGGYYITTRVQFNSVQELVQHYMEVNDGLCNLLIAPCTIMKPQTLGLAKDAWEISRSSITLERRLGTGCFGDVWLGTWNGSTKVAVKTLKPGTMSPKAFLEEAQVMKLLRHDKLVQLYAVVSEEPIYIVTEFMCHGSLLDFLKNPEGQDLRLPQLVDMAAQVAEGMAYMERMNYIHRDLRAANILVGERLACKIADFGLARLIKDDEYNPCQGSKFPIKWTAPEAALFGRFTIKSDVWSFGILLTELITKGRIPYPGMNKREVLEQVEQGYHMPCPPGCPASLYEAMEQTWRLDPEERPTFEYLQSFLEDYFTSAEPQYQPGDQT
Chain of Tyrosine-protein kinase Lyn (Homo sapiens) (P07948 2-512 limits assumed): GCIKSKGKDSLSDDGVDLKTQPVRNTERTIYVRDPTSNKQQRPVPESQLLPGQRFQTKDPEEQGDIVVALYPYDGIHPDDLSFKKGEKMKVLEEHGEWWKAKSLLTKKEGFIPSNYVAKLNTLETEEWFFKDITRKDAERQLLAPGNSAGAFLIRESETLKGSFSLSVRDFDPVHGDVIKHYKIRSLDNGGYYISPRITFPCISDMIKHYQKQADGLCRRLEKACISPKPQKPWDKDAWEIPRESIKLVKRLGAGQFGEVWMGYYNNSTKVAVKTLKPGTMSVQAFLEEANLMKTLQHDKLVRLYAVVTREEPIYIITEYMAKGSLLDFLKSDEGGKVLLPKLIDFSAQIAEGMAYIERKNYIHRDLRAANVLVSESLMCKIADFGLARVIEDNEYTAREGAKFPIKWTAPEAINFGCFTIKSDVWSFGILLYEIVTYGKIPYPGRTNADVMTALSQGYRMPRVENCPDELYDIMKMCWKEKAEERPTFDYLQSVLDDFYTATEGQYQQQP
Chain of Protein kinase C beta type (Homo sapiens) (P05771 2-671 limits assumed): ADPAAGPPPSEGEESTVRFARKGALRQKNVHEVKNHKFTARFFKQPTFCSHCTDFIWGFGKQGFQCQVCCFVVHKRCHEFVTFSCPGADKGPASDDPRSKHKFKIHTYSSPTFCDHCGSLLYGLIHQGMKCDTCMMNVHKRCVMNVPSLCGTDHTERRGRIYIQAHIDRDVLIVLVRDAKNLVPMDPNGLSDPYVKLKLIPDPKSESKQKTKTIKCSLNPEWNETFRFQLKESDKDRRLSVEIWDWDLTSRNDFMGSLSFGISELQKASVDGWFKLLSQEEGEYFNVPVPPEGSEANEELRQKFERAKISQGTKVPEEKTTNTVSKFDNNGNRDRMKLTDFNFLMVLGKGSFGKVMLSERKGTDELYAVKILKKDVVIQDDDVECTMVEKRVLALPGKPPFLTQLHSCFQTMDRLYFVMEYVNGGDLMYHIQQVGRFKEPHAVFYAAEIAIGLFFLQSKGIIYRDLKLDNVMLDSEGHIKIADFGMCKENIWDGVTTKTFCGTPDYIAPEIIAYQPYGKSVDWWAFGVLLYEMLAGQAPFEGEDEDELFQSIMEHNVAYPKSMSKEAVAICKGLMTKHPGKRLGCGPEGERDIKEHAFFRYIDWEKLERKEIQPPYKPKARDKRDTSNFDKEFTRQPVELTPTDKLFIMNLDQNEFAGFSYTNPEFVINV
Chain of Serine/threonine-protein kinase MARK2 (Homo sapiens) (Q7KZI7 whole entry): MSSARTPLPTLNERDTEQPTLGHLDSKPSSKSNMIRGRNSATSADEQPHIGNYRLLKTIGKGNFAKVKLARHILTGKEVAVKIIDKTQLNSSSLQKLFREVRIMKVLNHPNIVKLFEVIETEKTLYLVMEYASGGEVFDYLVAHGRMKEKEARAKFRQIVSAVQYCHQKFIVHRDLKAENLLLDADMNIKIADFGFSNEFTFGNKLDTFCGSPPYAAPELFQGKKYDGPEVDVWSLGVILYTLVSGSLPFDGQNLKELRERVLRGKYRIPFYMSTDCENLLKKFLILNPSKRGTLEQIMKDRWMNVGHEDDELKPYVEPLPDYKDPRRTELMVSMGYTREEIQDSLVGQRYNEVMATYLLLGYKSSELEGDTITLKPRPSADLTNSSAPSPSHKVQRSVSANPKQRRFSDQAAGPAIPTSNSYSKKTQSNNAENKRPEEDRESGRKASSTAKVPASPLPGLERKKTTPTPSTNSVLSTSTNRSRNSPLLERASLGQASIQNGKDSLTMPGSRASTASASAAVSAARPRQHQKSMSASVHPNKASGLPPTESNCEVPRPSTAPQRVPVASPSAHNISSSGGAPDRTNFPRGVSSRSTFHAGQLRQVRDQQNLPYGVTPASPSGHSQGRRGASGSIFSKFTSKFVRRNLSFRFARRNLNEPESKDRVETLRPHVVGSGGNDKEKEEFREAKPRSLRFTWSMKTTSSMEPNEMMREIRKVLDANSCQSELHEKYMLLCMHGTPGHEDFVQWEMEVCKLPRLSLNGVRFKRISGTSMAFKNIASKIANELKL
Chain of Serine/threonine-protein kinase MARK1 (Homo sapiens) (Q9P0L2 whole entry, looked up): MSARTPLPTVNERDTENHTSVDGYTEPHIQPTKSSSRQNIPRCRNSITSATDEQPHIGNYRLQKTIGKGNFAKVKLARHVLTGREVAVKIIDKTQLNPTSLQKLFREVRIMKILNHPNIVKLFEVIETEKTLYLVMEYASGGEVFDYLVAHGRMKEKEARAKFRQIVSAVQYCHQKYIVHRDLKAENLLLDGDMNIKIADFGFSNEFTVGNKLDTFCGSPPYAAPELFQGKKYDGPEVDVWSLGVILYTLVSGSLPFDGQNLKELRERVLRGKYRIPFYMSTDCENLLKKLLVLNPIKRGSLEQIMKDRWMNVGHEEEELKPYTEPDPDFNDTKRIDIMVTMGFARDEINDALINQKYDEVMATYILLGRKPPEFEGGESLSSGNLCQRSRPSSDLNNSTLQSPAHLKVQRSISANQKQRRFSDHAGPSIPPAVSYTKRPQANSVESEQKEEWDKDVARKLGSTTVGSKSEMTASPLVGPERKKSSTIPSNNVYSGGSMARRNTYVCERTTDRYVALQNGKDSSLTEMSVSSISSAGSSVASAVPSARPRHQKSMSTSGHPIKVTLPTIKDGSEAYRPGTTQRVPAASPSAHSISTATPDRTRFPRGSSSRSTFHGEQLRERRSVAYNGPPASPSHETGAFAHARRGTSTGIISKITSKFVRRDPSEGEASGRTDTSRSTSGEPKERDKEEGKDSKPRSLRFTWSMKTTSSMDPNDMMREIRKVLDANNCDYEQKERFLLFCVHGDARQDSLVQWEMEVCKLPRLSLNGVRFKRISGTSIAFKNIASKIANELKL

As to `C[C@H](Nc1ncnc2nc[nH]c12)c1cc2cccc(Cl)c2c(=O)n1-c1ccccc1`, the Activity in [1] is 93.6%; in assay [2], 97.7%; in assay [3], 83.6%; in assay [4], 103%; in assay [5] it was 95.9%; in assay [6], 102%. The Activity in [7] came to 93.3%; in assay [8] it was 95.8%; in [9], 97%; in assay [10], 100%; in assay [11] it was 99.9%; in assay [12], 99.4%. Also, the Activity in assay [13] and in assay [14] was 101% throughout.
Turning to `CC[C@H](Nc1ncnc2[nH]cnc12)c1nc2cccc(F)c2c(=O)n1-c1ccccc1`, the Activity in [1] was determined as 94%; in assay [2] it was 96.5%; in [3], 96%; in assay [4], 98.8%; in assay [5], 93.9%; in assay [6] it was 97.8%. The Activity in [7] is 99.9%; in assay [8] it was 94.3%; in assay [9], 95.2%; in assay [10], 98.7%; in assay [11], 105%; in assay [12], 98.7%. The Activity in assay [13] was determined as 97.8%; in [14] it was 101%.
With `CC(C)Oc1ccc(-c2nn([C@@H](C)c3oc4ccc(F)cc4c(=O)c3-c3cccc(F)c3)c3ncnc(N)c23)cc1F` [UMBRALISIB], the Activity in [1] came to 95.5%; in assay [2] it was 98.5%; in [3], 78.2%; in assay [4] it was 99.6%; in assay [5], 96.4%; in [6], 104%. In addition, the Activity stood at 96.2% in assay [7]; 99.7% in assay [8]; 96.4% in assay [9]; 101% in [10]; 102% in [11]; 99% in [12]. Also, the Activity came out at 93.5% in [13] and 106% in assay [14].

Values taken from ChEMBL document CHEMBL5715954, “Silencing c-Myc translation as a therapeutic strategy through targeting PI3Kδ and CK1ε in hematological malignancies” (Blood, 2017).
